Data on nine compounds can be found in patent US9174995B2, “Pyrrolotriazinone derivatives” (Merck Patent GmbH, priority 2012, dated 2015).

In assay [1] the target is T1, GST-tagged Tnks-1 (1023-1327 aa) (Homo sapiens, UniProt O95271).
T1 construct: GST-tagged Tnks-1 (1023-1327 aa, prepared in-house); made in house
Briefly: TNKS1 activity ELISA (autoparsylation assay). The class given is biochemical. The procedure:
(§1) Description of the TNKS1 and TNKS2 ELISA Assay
(§2) Biochemical Activity Testing of TNKS 1 and 2: Activity ELISA (Autoparsylation Assay)
(§3) For analysis of autoparsylation activity of TNKS 1 and 2 an activity ELISA is performed: In the first step GST tagged TNKS is captured on a Glutathione coated plate. Then the activity assay with biotinylated NAD is performed in the absence/presence of the compounds. During the enzymatic reaction GST tagged TNKS transfers biotinylated ADP-ribose to itself from biotinylated NAD as co-substrate. For the detection streptavidin-HRP conjugate is added that binds to the biotinylated TNKS and is thereby captured to the plates. The amount of biotinylated resp. autoparsylated TNKS is detected with a luminescence substrate for HRP. The level of the luminescence signal correlats directly with the amount of autoparsylated TNKS and therefore with activity of TNKS.
(§4) The activity ELISA is performed in 384 well Glutathione coated microtiter plates (Express capture Glutathione coated plate, Biocat, Heidelberg, Germany). The plates are pre-equilibrated with PBS. Then the plates are incubated with 50 μl 20 ng/well GST-tagged Tnks-1 (1023-1327 aa, prepared in-house), respectively GST-tagged Tnks-2 (873-1166 aa, prepared in-house) in assay buffer (50 mM HEPES, 4 mM Mg-chloride, 0.05% Pluronic F-68, 2 mM DTT, pH 7.7) overnight at 4° C. The plates are washed 3 times with PBS-Tween-20. The wells are blocked by incubation at room temperature for 20 minutes with 50 μl blocking buffer (PBS, 0.05% Tween-20, 0.5% BSA). Afterwards the plates are washed 3 times with PBS-Tween-20. The enzymatic reaction is performed in 50 μl reaction solution (50 mM HEPES, 4 mM Mg-chloride, 0.05% Pluronic F-68, 1.4 mM DTT, 0.5% DMSO, pH 7.7) with 10 μM bio-NAD (Biolog, Life science Inst., Bremen, Germany) as co-substrate in the absence or presence of the test compound (10 dilution concentrations) for 1 hour at 30° C. The reaction is stopped by 3 times washing with PBS-Tween-20. For the detection 50 μl of 20 ng/μl Streptavidin, HRP conjugate (MoBiTec, Göttingen, Germany) in PBS/0.05%Tween-20/0.01%BSA are added and the plates are incubated for 30 minutes at room temperature. After three times washing with PBS-Tween-20 50 μl of SuperSignal ELISA Femto Maximum sensitivity substrate solution (ThermoFisherScientific (Pierce), Bonn, Germany) are added. Following a 1 minute incubation at room temperature luminescence signals are measured with an Envision multimode reader (Perkin Elmer LAS Germany GmbH) at 700 nm. The full value used is the inhibitor-free reaction. The pharmacological zero value used is XAV-939 (Tocris) in a final concentration of 5 μM. The inhibitory values (IC50) are determined using either the program Symyx Assay Explorer® or Condosseo® from GeneData.

The target of assay [2] is T2, GST-tagged Tankyrase-1 (1023-1327 aa) (Homo sapiens, UniProt O95271).
T2 construct: GST-tagged Tankyrase-1 (1023-1327 aa)
The assay is described as follows: Tankyrase 1 autoparsylation assay (HTRF enzyme assay). The assay is classed as biochemical. The procedure:
(§5) Biochemical Activity Testing of Tankyrase 1 and 2: Autoparsylation Assay
(§6) The autoparsylation assay is run in two steps: the enzymatic reaction in which GST-tagged Tankyrase-1, resp Tankyrase-2 transferred biotinylated ADP-ribose to itself from biotinylated NAD as co-substrate and the detection reaction where a time resolved FRET between cryptate labelled anti-GST bound to the GST tag of the enzyme and Xlent® labelled-streptavidin bound the biotin-parsylation residue is analysed. The autoparsylation activity was detectable directly via the increase in HTRF signal.
(§7) The autoparsylation assay is performed as 384-well HTRF® (Cisbio, Codolet, France) assay format in Greiner low volume nb 384-well microtiter plates and is used for high throughput screen. 250 nM GST-tagged Tankyrase-1 (1023-1327 aa), respectively about 250 nM GST-tagged Tankyrase-2 (873-1166 aa) and 5 μM bio-NAD (Biolog, Life science Inst., Bremen, Germany) as co-substrate are incubated in a total volume of 5 μl (50 mM HEPES, 4 mM Mg-chloride, 0.05% Pluronic F-68, 1.4 mM DTT, 0.5% DMSO, pH 7.7) in the absence or presence of the test compound (10 dilution concentrations) for 90 min at 30° C. The reaction is stopped by the addition of 1 μl 50 mM EDTA solution. 2 μl of the detection solution (1.6 μM SA-Xlent® (Cisbio, Codolet, France), 7.4 nM Anti-GST-K® (Eu-labelled anti-GST, Cisbio, Codolet, France) in 50 mM HEPES, 800 mM KF, 0.1% BSA, 20 mM EDTA, 0.1% CHAPS, pH 7.0) are added. After 1 h incubation at room temperature the HTRF is measured with an Envision multimode reader (Perkin Elmer LAS Germany GmbH) at excitation wavelength 340 nm (laser mode) and emission wavelengths 615 nm and 665 nm. The ratio of the emission signals is determined. The full value used is the inhibitor-free reaction. The pharmacological zero value used is XAV-939 (Tocris) in a final concentration of 5 μM. The inhibitory values (IC50) are determined using either the program Symyx Assay Explorer® or Condosseo® from GeneData.

Assay [3] addresses T3, GST-tagged Tnks-2 (873-1166 aa) (Homo sapiens, UniProt Q9H2K2).
T3 construct: GST-tagged Tnks-2 (873-1166 aa, prepared in-house); made in house
Briefly: TNKS2 activity ELISA (autoparsylation assay). The class given is biochemical. The procedure:
as §1, §2, §3, §4

The target of assay [4] is T4, GST-tagged Tankyrase-2 (873-1166 aa) (Homo sapiens, UniProt Q9H2K2).
T4 construct: GST-tagged Tankyrase-2 (873-1166 aa)
Briefly: Tankyrase 2 autoparsylation assay (HTRF enzyme assay). The assay is classed as biochemical. The procedure:
as §5, §6, §7

Another assay relates to Tankyrases. The assay is described as follows: Cellular inhibition of Tankyrase: increase of Axin2 level in DLD1 cells (Luminex). The assay is classed as cell-based. The note with it: 24 hours, read-out: EC50 tankyrase ½ (cell assay). As for the experimental part:
Measurement of Cellular Inhibition of Tankyrase
Since Tankyrases have been described to modulate cellular level of Axin2 (Huang et al., 2009; Nature) the increase of Axin2 level is used as readout for determination of cellular inhibition of Tankyrases in a Luminex based assay.
Cells of the colon carcinoma cell line DLD1 are plated in 96 well plates with 1.5×10^4 cells per well. Next day, cells are treated with a serial dilution of test compound in seven steps as triplicates with a final DMSO concentration of 0.3%. After 24 hours, cells are lysed in lysis buffer (20 mM Tris/HCl pH 8.0, 150 mM NaCl, 1% NP40, 10% Glycerol) and lysates are cleared by centrifugation through a 96 well filter plate (0.65 μm). Axin2 protein is isolated from cell lysates by incubation with a monoclonal anti-Axin2 antibody (R&D Systems #MAB6078) that is bound to fluorescent carboxybeads. Then, bound Axin2 is specifically detected with a polyclonal anti-Axin2 antibody (Cell Signaling #2151) and an appropriate PE-fluorescent secondary antibody. The amount of isolated Axin2 protein is determined in a Luminex^200 machine (Luminex Corporation) according to the manufacturer's instruction by counting 100 events per well. Inhibition of Tankyrase by test compounds results in higher levels of Axin2 which directly correlates with an increase of detectable fluorescence. As controls cells are treated with solvent alone (neutral control) and with a Tankyrase reference inhibitor IWR-2 (3E-06 M) which refers as control for maximum increase of Axin2. For analysis, the obtained data are normalized against the untreated solvent control and fitted for determination of the EC50 values using the Assay Explorer software (Accelrys).

A further assay relates to DLD-1-cancer cells. The note with it: cited from earlier work.

T4 sequence (Q9H2K2 873-1166): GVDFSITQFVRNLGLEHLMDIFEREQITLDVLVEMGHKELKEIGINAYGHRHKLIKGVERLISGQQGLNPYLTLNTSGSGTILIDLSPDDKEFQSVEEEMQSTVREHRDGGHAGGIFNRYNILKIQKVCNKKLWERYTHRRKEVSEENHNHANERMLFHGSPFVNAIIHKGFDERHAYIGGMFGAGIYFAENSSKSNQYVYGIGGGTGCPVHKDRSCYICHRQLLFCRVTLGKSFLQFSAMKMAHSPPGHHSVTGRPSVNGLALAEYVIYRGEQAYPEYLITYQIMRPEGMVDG
T2 sequence (O95271 1023-1327): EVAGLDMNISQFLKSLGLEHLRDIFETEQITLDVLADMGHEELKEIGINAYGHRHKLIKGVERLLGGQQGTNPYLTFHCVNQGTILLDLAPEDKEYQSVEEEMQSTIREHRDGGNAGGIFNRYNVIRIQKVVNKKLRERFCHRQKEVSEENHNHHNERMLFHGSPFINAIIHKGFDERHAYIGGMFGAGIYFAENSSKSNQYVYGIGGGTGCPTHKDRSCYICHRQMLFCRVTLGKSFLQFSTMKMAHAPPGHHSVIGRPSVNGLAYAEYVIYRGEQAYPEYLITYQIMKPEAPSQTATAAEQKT
T3 sequence (Q9H2K2 873-1166): as the sequence (Q9H2K2 873-1166) above
T1 sequence (O95271 1023-1327): as the sequence (O95271 1023-1327) above

Turning to `Cc1ccc(-c2nn3cccc3c(=O)[nH]2)cc1` [Compound A1, 2-p-tolyl-3H-pyrrolo[2,1-f][1,2,4]triazin-4-one], the IC50 in assay [1], in assay [2], in assay [3] and in assay [4] was below 300 nM in each case.

For the compound `COC(=O)c1ccc(-c2nn3cccc3c(=O)[nH]2)cc1` [Compound A2, 4-(4-oxo-3,4-dihydro-pyrrolo[2,1-f][1,2,4]triazin-2-yl)-benzoic acid methyl ester], the EC50 in the assay on Tankyrases was 300 to 3000 nM. For the same compound, the IC50 in assay [2] and in assay [4] was below 300 nM in each case.

In the case of `CC(C)(C)c1ccc(-c2nn3cccc3c(=O)[nH]2)cc1` [Compound A3, 2-(4-tert-butyl-phenyl)-3H-pyrrolo[2,1-f][1,2,4]triazin-4-one], in the assay with Tankyrases, the EC50 is 300 to 3000 nM. Further, the IC50 in assay [2] was below 300 nM; in assay [4], 300 to 3000 nM.

Take `O=c1[nH]c(-c2ccc(Br)cc2)nn2cccc12` [Compound A6, 2-(4-bromo-phenyl)-3H-pyrrolo[2,1-f][1,2,4]triazin-4-one]: the IC50 in assay [2] and in assay [4] was below 300 nM throughout.

As to `CC(C)(N)c1ccc(-c2nn3cccc3c(=O)[nH]2)cc1` [Compound A16, 2-[4-(1-amino-1-methyl-ethyl)-phenyl]-3H-pyrrolo[2,1-f][1,2,4]-triazin-4-one], the IC50 in assay [2] and in assay [4] was 300 to 3000 nM throughout.

Consider `Cc1cc2c(=O)[nH]c(-c3ccc(C(C)(C)O)cc3)nn2n1` [Compound A17, 6-[4-(1-hydroxy-1-methyl-ethyl)-phenyl]-2-methyl-5H-1,5,7,7a-tetraaza-inden-4-one], for which the IC50 in assay [1], in assay [2], in assay [3] and in assay [4] was 300 to 3000 nM throughout. In the assay on Tankyrases, the EC50 lay within 3000 to 50000 nM.

`Cc1ccc2c(=O)[nH]c(-c3ccc(C(C)(C)O)cc3)nn12` [Compound A19, 2-[4-(1-hydroxy-1-methyl-ethyl)-phenyl]-7-methyl-3H-pyrrolo[2,1-f][1,2,4]triazin-4-one]: in the assay on Tankyrases, the half-maximal effective concentration (EC50) was below 300 nM. Besides, the IC50 in assay [2] and in assay [4] was below 300 nM throughout.

Consider `CC(C)(O)c1ccc(-c2nn3c(C(F)(F)F)ccc3c(=O)[nH]2)cc1` [Compound A20, 2-[4-(1-hydroxy-1-methyl-ethyl)-phenyl]-7-trifluoromethyl-3H-pyrrolo[2,1-f][1,2,4]triazin-4-one], for which the figures for the half-maximal inhibitory concentration (IC50) in assay [2] and in assay [4] were 300 to 3000 nM and 3000 to 50000 nM, respectively.

Consider `Oc1nc(-c2ccc(C(F)(F)F)cc2)nc2c1CSCC2` [XAV939], for which, in the assay on DLD-1-cancer cells, the “growth of DLD-1-cancer cells” value is given as “inhibits growth”.
